US20230331676A1, “NAPHTHYLUREA COMPOUND, METHODS OF PREPARATION AND USE THEREOF” (Henan Radiomedical Science and Technology Co., Ltd., priority 2021, published 2023)

What was measured:
Format in all cases: cell-based
HepG2 cells [1] = assay: Apoptosis by Annexin V-FITC/PI flow cytometry, HepG2; settings: HepG2, 0, 2, 4, 8 μM, 48 h, vs control group
Method: (§1) The MDA-MB-468 or HepG2 cells were harvested during log phase, digested, centrifuged and prepared into a single cell suspension; the number of the cells in the cell suspension was counted; the cells were seeded into a 12-well plate, with 2×10^5 cells per well; three wells were used as a parallel control design; 16 hours after seeding, the cells were treated with the compounds.
(§2) With DMSO as a solvent, the final concentrations of the compounds IY210216D-1 and ID210203C-1 in HepG2 cell suspension were 0, 2, 4 and 8 μM, respectively, and the final concentrations of the compound IY210316B-1 in MDA-MB-468 cell suspension were 0 and 0.12 μM, respectively. […]

[2] = test system: JAK2/STAT3 signal axis in MDA-MB-468 or HepG2 cells; assay: Western blot of JAK2/STAT3 signal axis protein expression; settings: MDA-MB-468 (0, 0.5, 1 μM) or HepG2 (0-8 μM), 48 h, vs solvent control; dose-dependent
Method: MDA-Mb-468 or HepG2 cells in logarithmic growth phase were inoculated in a 6-well plate, with 8×10^5 cells per well. After cell adhesion, the compound ID210203C-1 was added until a final concentration thereof was 0, 0.5, 1 or 0, 0.5, 1, 2, 4 and 8 μM respectively. After about 48 hours, the cells were lysed with RIPA lysate and proteins were collected for Western blot analysis. The protein expressions were respectively detected through the anti-JAK2, p-JAK2, STAT3, p-STAT3, CyclinD1, p-AKT, p-ERK and β-actin antibodies.

[3] = test system: tumor cells such as breast cancer (MDA-MB-468) and liver cancer (HepG2); assay: MTT assay, inhibition of tumor cell proliferation; settings: 48 h, compared with positive control WP1066, IC50 values only in FIG. 1
Method: Tumor cells in logarithmic growth phase were collected; the cell suspension was diluted to a density of 5×10^4 cells/mL; 100 uL of the cell suspension was transferred to each hole of a 96-well plate; DMSO was used as a solvent for negative control; (2E)-3-(6-bromo-2-pyridyl)-2-cyano-N-[(1S)-1-phenylethyl]-2-acrylamide (WP1066CAS: 857064-38-1, with a formula
was used as a positive control; the naphthylurea compounds IY210216D-1, ID210203C-1 and IY210316B-1 were diluted with DMSO and added into the 96-well plate to a final concentration of 0.1, 0.3, 1, 3, 10, 30, 100 and 300 μmol/L; the 96-well plate was incubated for 48 h; 10 μL of MTT solvent (5 mg/mL) was added into each well; the 96-well plate was incubated at 37° C. for 4 h; a culture supernatant was discarded; 150 μL of DMSO was added into each well; the 96-well plate was shaken for 10 min on a plate shaker; an optical density (OD) of the resulting product was measured at a wavelength of 490 nm by an ELISA reader. Test results were recorded. A cell growth curve was drawn with the dosage of each compound as abscissa and the absorbance value as ordinate. The statistical results of the half inhibition rate (IC50 value) of tumor cells by the compounds IY210216D-1, ID210203C-1 and IY210316B-1 were shown in FIG. 1.

HepG2 liver cancer cells = assay: Q-PCR of mRNA level of cell cycle and metastasis related molecules; settings: HepG2, 4 μM, 24 hours; for down-regulation of Cyclin B1 (CCNB1) mRNA level / down-regulation of Cyclin D1 (CCND1) mRNA level: relative to actin gene
Method: HepG2 liver cancer cells were seeded in a 6-well plate, with 1×10^6 cells per well, and treated with the compounds IY210216D-1 and ID210203C-1 (in 0 and 4 μM concentrations) for 24 h; total RNA was extracted from the HepG2 liver cancer cells by a single-step TRIzol method; the concentration and purity of the total RNA was measured; the total RNA was used as a template; and complementary DNA (cDNA) was synthesized from the RNA template according to the instruction of a reverse transcription kit (Promega); sqRT-PCR and qPCR were used to quantify the expression of the genes CCNB1, CDK1 and SQSTM; and the gene ACTB was used as an internal reference gene for gene expression normalization.
A20 μL reaction mix for qPCR contained: • 2 μL of cDNA; • 10 μL of 2×SYBR Green Supermix; • 1 μL of upstream and downstream primers; • 0.3 μL of reference dye; • 6.7 μL of water. • Each sample has three technical replicates. • Cycling conditions comprised: • pre-denaturation at 95° C. for 5 min; • denaturation at 95° C. for 15 sec; • annealing at 60° C. for 15 sec; and • extension at 72° C. for 30 sec.
After 40 cycles, the cycle […] (CT) value of the […] gene was used as an initial value in comparison with the amount of the amplified product.

MDA-MB-468 cells [4] = assay: Cell cycle distribution by flow cytometry (PI), MDA-MB-468; settings: breast cancer cells (MDA-MB-468), 2 μM, 48 h, vs DMSO
Method: (§3) MDA-MB-468 or HepG2 cells were harvested during log phase, digested, centrifuged and prepared into a single cell suspension; the number of the cells in the single cell suspension was counted; the cells were seeded into a 12-well plate, with 2×10^5 cells per well; three wells were used as a parallel control design; 16 hours after seeding, the cells were treated with the compounds. With DMSO as a solvent, the final concentrations of the compounds IY210216D-1 and ID210203C-1 in HepG2 cell suspension were 0, 2, 4 and 8 μM, respectively, and the final concentrations of the compounds IY210216D-1 and ID210203C-1 in MDA-MB-468 cell suspension were 0 and 2 μM, respectively. 48 hours later, the cells were digested with trypsin and resuspended; the number of the cells in the cell suspension was counted and diluted to 5×10^5 cells/mL; after the digestion was completed, the cell suspension was centrifuged; the supernatant was discarded; the pellet was washed twice with PBS (each time the mixture was centrifuged 2000 rpm for 5 min); the supernatant was discarded; a fixative comprising 980 μL of 70% cold ethanol and 20 μL of 5% BSA (a small amount of BSA reduces cellular stress and damage) was added to each microcentrifuge tube, so that the cells were fixed overnight at 4° C.; the fixative is discarded; the cells were washed three times in PBS to remove residual fixative (each time the mixture was centrifuged at 1000 rpm for 3 min); a DNA quantification kit is used to measure the content of DNA according to the following instruction (Suo Laibao, Beijing): each sample was incubated in 100 μL of RNase A at 37° C. for 30 min; 500 μL of PI (propidium iodide) was added to each sample; each sample was incubated at room temperature for 30 min in the dark; the cell cycle was analyzed by a flow cytometry and a ModFit software; and Graphpad prism 6.0 was used to estimate the percentage of a cell population in the different phases of the cell cycle.

HepG2 cells [5] = assay: Cell cycle distribution by flow cytometry (PI), HepG2; settings: hepatoma cells (HepG2), 2, 4, 8 μM, 48 h, vs DMSO
Method: as §3

MDA-MB-468 cells [6] = assay: Apoptosis by Annexin V-FITC/PI flow cytometry, MDA-MB-468
Method: as §1, §2

Row | Compound | induction of apoptosis (HepG2 cells [1]) | expression level of CyclinD1 [2] | expression level of p-JAK2 [2] | expression level of p-STAT3 [2] | inhibitory effect on the proliferation of tumor cells [3] | expression of MMP9 at mRNA level (HepG2 liver cancer cells) | down-regulation of Cyclin B1 (CCNB1) mRNA level (HepG2 liver cancer cells) | down-regulation of Cyclin D1 (CCND1) mRNA level (HepG2 liver cancer cells) | G1 phase ratio (MDA-MB-468 cells [4]) | S phase ratio (MDA-MB-468 cells [4]) | G1 phase ratio (HepG2 cells [5]) | G2 phase ratio (HepG2 cells [5]) | apoptosis of breast cancer cells (MDA-MB-468 cells [6]; 0.12 μM, 48 hours) | induction of apoptosis (MDA-MB-468 cells [6]; MDA-MB-468, 0 and 0.12 μM, 48 h, vs control group)
1 | O=C(NCc1ccncc1)Nc1ccc(OCc2ccc(OCCN3CCCCC3)cc2)c2ccccc12 [ID210203C-1] | increased apoptosis in a dose-dependent manner | significantly inhibit | significantly inhibit | significantly inhibit | good inhibitory effects | down-regulating | ~10 folds | ~10 folds | decrease | significant increase | significant decrease | significant increase |  | 
2 | O=C(Nc1ccc(OCc2ccc(OCCN3CCCCC3)cc2)c2ccccc12)NC1CCOCC1 [IY210216D-1] | increased apoptosis in a dose-dependent manner |  |  |  | good inhibitory effects | down-regulating | ~10 folds | ~10 folds | decrease | significant increase | significant decrease | significant increase |  | 
3 | O=C(NCc1ccccn1)Nc1ccc(OCc2ccc(OCCN3CCCCC3)cc2)c2ccccc12 [IY210316B-1, 1-(4-((4-(2-(piperidin-1-yl)ethoxy)benzyl)oxy)naphthalen-1-yl)-3-(pyridin-2-ylmethyl)urea] |  |  |  |  | good inhibitory effects |  |  |  |  |  |  |  | 43.86% | increased apoptosis in a dose-dependent manner
